Data: patent US20150159169A1, “Plants Tolerant to HPPD Inhibitor Herbicides” (Bayer CropScience AG, priority 2009, published 2015)
“And” between values parts separate entries of the source, which are not always exact repeats. Equal entries are not always repeated.

Tests used:
wild type tobacco plants = assay: Glasshouse spray trial, % injury; format: in vivo, Nicotiana tabacum; conditions: 7DAT, 100 gAI/ha spray; individual WT plants; 100% = bleaching as wild type
Experimental: (§1) T0 Tobacco plants containing either the gene from Arabidopsis coding for HPPD or the gene FMP27e from Kordia algicida coding for FMP27 HPPD, mentioned above (Example 3), were transferred to the glasshouse (28/20° C.), to develop further and produce seeds. Those seeds were harvested and put on soil (ED73 mixed with sand and osmocote Pro) to germinate in the glasshouse (28/20° C.). Three to four weeks later, plantlets were transferred to single pots containing the soil mentioned above. Two weeks later, plants of a size 4-6 cm diameter were sprayed with either • tembotrione at 100 gAI/ha prepared from a WP20 (wettable powder 20%) formulation supplemented with ammonium sulfate and methyl ester raps oil, or • isoxaflutole at 100 gAI/ha prepared from a WP20 formulation supplemented with ammonium sulfate and methyl ester raps oil, or • bicyclopyrone at 100 gAI/ha prepared from a WP20 formulation supplemented with ammonium sulfate and methyl ester raps oil, or • “blind formulation” made from a WP20 formulation without active ingredient (AI) supplemented with ammonium sulfate and methyl ester raps oil, and were then transferred to a growth chamber with adequate light conditions (20000 Lux).
(§2) Table 6: Wild type tobacco plants (A) and T1 populations of tobacco events containing alternatively, the expression cassettes described above having the promoter CaMV 35S, the sequence coding for OTP and the sequence coding for Arabidopsis HPPD (B) or the promoter CaMV35S, the sequence encoding OTP, and the sequence FMP27e coding for the HPPD FMP27 (C). Assessments of herbicidal damage at 7 days after application (DAT) per spray with 100 g AI/ha of tembotrione or isoxaflutole supplemented with ammonium sulfate and methyl ester raps oil. […] Plants belonging to categories (B) and (C) have not been selected for the presence of the respective transgene prior to the herbicide application.

[1] = tested on: T1 tobacco plants containing FMP27e (Kordia algicida HPPD FMP27); assay: Glasshouse spray trial, % injury; format: in vivo, Nicotiana tabacum; conditions: 7DAT, 100 gAI/ha spray
Experimental: as §1, §2

[2] = tested on: T1 tobacco plants containing Arabidopsis HPPD; assay: Glasshouse spray trial, % injury; format: in vivo, Nicotiana tabacum; conditions: 7DAT, 100 gAI/ha spray
Experimental: as §1, §2

[3] = tested on: T0 tobacco plants expressing the FMP27 HPPD (FMP27t); assay: Greenhouse response of T0 tobacco plants to tembotrione; format: in vivo, Nicotiana tabacum; conditions: 100 g AI/ha, two weeks after treatment
Experimental: As an example, rooted plants containing the T-DNA PromCaMV35S-OTP-HIS6-FMP27t-TerCaMV35S, were transferred to the greenhouse under standard growth conditions. Following a period of acclimation of two weeks, the T0 plants were treated with a mixture containing 100 g tembotrione/ha prepared from a WP20 (wettable powder 20%) formulation supplemented with ammonium sulfate and methyl ester raps oil. Two weeks after the treatment, the symptoms due to the application of the herbicides were evaluated. The plants were classified in four categories. The treated plants evaluated as “0” are looking like the untreated tobacco plants. The plants evaluated as “1” display temporarily light bleaching phenotype due to the application of the herbicides. The plants evaluated as “2” display permanent light to strong bleaching symptoms. Finally the plants evaluated as “3” are looking like wild type tobacco plants submitted to the same treatment.

[4] = tested on: tobacco plants containing FMP27t-h, PAT and 2mEPSPS (pFCO116); assay: Glasshouse response of three-tolerance-gene tobacco to herbicides, injury classes; format: in vivo, Nicotiana tobacum; conditions: 100 g AI/ha, 9 DAT
Experimental: A binary vector for tobacco transformation is, for example, constructed with the CaMV35 promoter driving the expression of the gene FMP27t-h (SEQ ID No. 15), with a codon usage optimized for the expression in dicotyledoneous plants and at its 5′extremity was added a sequence coding for an OTP, and further upstream a sequence TEV (Tobacco etch virus) to improve the stability of the mRNA in plants followed by the CaMV35S terminator. The nucleotide sequence of the gene FMP27t-h is given in SEQ ID No. 15. Additionally, the transformation vector also contains a PAT gene cassette in which the gene is driven by a CaVM35S promoter and followed by a CaMV35S terminator for glufosinate based selection during the transformation process and a 2mEPSPS gene cassette in which the gene is driven by an histone promoter from Arabidopsis to confer tolerance to the herbicide glyphosate to the transformed plants (see FIG. 3 H). The binary vector was called pFCO116. The above vector was used to transform leaf disc obtained from Nicotiana tobacum plants, according to Example 3.
Transgenic tobacco plants were transferred to the greenhouse and treated with glyphosate at a rate of 1121 g AI/ha. Seeds were produced from such tolerant tobacco plants and harvested. These seeds were put on soil to germinate in the glasshouse. Three to four weeks later, 50 plantlets per event were transferred to single pots. Two weeks later, plants of a size 4-6 cm were sprayed either with
[…] […] Non-transgenic tobacco plants were completely killed by treatment using one or more of the above herbicides.

[5] = target: Kordia algicida HPPD "SEQ ID No. 5" (FMP27e) (Kordia algicida, UniProt A9DQF2); assay: HPLC assay of HPPD in vitro kinetic properties; format: biochemical
Experimental: Km, Vmax, and kcat values for different HPPD enzyme preparations and Ki, K1=Kon, and K−1=Koff for different HPPD inhibitors were determined using a HPLC assay for measurements of HPPD activity. […] All assays were started by the addition of HPPD enzyme to the assay mixture and stopped at a series of times between 0 and 240 s by addition of 200 μl of the reaction mixture to reaction assay tubes containing 20 μl 10% perchloric acid. Precipitated protein was pelleted by a 5 minute centrifugation at 10,000 g.
For Km and Vmax value determinations the initial rates of the HPPD reaction at different substrate concentrations were determined from plots of HGA formed versus time and fitted to the Michaelis-Menten equation for unireactant enzymes using the ID Business Solutions Ltd. (idbs.com) XLfit software suite.

Sequence of Kordia algicida HPPD "SEQ ID No. 5" (FMP27e) (A9DQF2 entry or part of it): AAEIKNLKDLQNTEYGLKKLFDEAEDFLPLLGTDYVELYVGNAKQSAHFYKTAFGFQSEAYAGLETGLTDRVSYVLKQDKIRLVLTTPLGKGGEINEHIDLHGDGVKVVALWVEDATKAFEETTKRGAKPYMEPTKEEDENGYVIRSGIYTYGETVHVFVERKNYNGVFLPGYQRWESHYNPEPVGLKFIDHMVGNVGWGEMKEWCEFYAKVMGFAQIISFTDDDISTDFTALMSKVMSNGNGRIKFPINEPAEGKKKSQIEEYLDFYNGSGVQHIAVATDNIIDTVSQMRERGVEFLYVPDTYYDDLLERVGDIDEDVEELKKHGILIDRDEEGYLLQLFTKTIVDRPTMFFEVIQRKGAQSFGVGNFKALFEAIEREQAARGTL

CS(=O)(=O)c1ccc(C(=O)C2C(=O)CCCC2=O)c(Cl)c1COCC(F)(F)F [Tembotrione, 2-[2-chloro-4-(methylsulfonyl)-3-[(2,2,2,-tri-fluoroethoxy)methyl]benzoyl]-1,3-cyclo-hexanedione]
% injury (wild type tobacco plants): 100%
% injury ([1]; line 121, individual T1 plants): 0% (4×) and 5% (3×) and 10% (6×)
% injury ([1]; line 129, individual T1 plants): 0% (2×) and 5% (2×) and 10% (2×) and 15% (2×) and 30% (2×)
% injury ([1]; line 218, individual T1 plants): 0% (11×) and 5% (4×)
% injury ([2]; line 252, individual T1 plants): 30% and 40% (3×) and 50% and 60% (2×) and 70% (2×) and 75% (3×) and 80%
% injury ([2]; line 258, individual T1 plants): 100% (5×) and 30%
% injury ([2]; line 327, individual T1 plants): 10% and 20% (2×) and 40% and 50% (2×) and 70% (5×) and 80% (4×)
number of plants in category 0 (looking like the untreated tobacco plants) [3]: 11
number of plants in category 1 (temporarily light bleaching) [3]: 4
number of plants in category 2 (permanent light to strong bleaching) [3]: 10
number of plants in category 3 (like wild type plants submitted to the same treatment) [3]: 4
Class I, number of plants (no injuries) ([4]; line 639): 7
Class II, number of plants (injury: 10-40%) ([4]; line 639): 3
Class III, number of plants (injury: 41-100%) ([4]; line 639): 0
Class I, number of plants (no injuries) ([4]; line 714): 5
Class II, number of plants (injury: 10-40%) ([4]; line 714): 1
Class III, number of plants (injury: 41-100%) ([4]; line 714): 4
Class I, number of plants (no injuries) ([4]; line 717): 4
Class II, number of plants (injury: 10-40%) ([4]; line 717): 2
Class III, number of plants (injury: 41-100%) ([4]; line 717): 4
Ki [5]: 33 µM
kon ([5]; read-out: k1 (=Kon)): 490 M⁻¹ s⁻¹
koff ([5]; read-out: k−1 (=Koff)): 0.016 s⁻¹
